From US10981926B2 (Janssen Pharmaceutica NV, priority 2016, dated 2021) come the findings set out here.

Test [1] has as its system rGABA-gated Cl− channel. Nature of the test: GABA-Gated Cl Channel Antagonist Radioligand Binding Assay. As to conditions: 10 μM single point, [35S]-TBPS, cerebral cortex membrane homogenates. Further details: species or system rat. How it is done: GABA-gated C1 Chanel assays were performed at CEREP according to the following method. Membrane homogenates of cerebral cortex (120 μg protein) were incubated for 120 min at 22° C. with 3 nM […] in the absence or presence of the test compound in a buffer containing 50 mM Na2HPO4/KH2PO4 (pH 7.4) and 500 mM NaCl. Nonspecific binding was determined in the presence of 20 μM picrotoxinin. Following incubation, the samples were filtered rapidly under vacuum through glass fiber filters (GF/B, Packard) presoaked with 0.3% PEI and rinsed several times with ice-cold 50 mM Tris-HCl using a 96-sample cell harvester (Unifilter, Packard). The filters were dried then counted for radioactivity in a scintillation counter (Topcount, Packard) using a scintillation cocktail (Microscint 0, Packard). The results are expressed as a percent inhibition of the control radio ligand specific binding. The standard reference compound is picrotoxinin, which was tested in each experiment at several concentrations to obtain a competition curve from which its IC50 was calculated. In this assay, the following representative compounds disclosed herein had recorded activities at a 10 μM single point concentration in the GABA-gated Cl— Channel Binding Assay.

The target of test [2] is T1, F876L mutant Androgen Receptor (AR-F876L) (Homo sapiens (Human), UniProt P10275, F877L). Nature of the test: LNCaP-AR-F876L ANT reporter assay (antagonist mode). The format is cell-based. As to conditions: for IC50 / LNCaP-AR-F876L ANT pIC50: pIC50 = −Log10(IC50 in Molar); for IC50: read-out: LNCaP-AR-F876L ANT pIC50 (converted); for Emax: read-out: LNCaP-AR-F876L ANT MAX % Inh.
T1 sequence (P10275 whole entry F877L): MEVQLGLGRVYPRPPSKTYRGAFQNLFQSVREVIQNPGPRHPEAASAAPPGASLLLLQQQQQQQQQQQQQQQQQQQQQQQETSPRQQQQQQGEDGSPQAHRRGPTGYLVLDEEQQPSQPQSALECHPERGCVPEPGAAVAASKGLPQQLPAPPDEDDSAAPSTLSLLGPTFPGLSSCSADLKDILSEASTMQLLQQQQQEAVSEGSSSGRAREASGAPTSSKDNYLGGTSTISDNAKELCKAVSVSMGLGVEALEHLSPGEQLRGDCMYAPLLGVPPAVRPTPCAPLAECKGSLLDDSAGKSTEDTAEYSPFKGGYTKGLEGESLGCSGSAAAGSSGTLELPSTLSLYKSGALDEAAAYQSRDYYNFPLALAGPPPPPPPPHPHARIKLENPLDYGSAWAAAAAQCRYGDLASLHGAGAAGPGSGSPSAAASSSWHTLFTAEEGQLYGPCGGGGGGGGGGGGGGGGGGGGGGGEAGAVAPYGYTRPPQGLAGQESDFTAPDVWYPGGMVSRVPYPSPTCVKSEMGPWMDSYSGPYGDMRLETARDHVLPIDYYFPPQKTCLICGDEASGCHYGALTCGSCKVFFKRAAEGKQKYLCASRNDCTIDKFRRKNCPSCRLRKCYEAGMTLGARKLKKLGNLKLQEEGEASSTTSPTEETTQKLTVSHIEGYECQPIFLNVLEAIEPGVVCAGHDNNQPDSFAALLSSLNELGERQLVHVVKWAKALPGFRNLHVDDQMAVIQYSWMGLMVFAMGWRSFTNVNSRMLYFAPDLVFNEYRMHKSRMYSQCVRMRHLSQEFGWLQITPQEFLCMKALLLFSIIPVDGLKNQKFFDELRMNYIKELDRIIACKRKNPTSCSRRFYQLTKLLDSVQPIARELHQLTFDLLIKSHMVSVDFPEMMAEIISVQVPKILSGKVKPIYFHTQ

For test [3], the target named is T2, wild-type Androgen Receptor (AR-wt) (Homo sapiens (Human), UniProt P10275). Nature of the test: LNCaP-AR-wt ANT reporter assay (antagonist mode). The format is cell-based. As to conditions: for IC50 / LNCaP-AR-wt ANT pIC50: pIC50 = −Log10(IC50 in Molar); for IC50: read-out: LNCaP-AR-wt ANT pIC50 (converted); for Emax: read-out: LNCaP-AR-wt ANT MAX % Inh.
T2 sequence (P10275 whole entry): as the sequence (P10275 whole entry F877L) above, with L877F counted along it
For test [4], the target named is T2, wild-type Androgen Receptor (AR-wt). Nature of the test: LNCaP-AR-wt AG reporter assay (agonist mode). The format is cell-based. The conditions noted are these: for EC50: read-out: LNCaP-AR-wt AG pEC50 (converted); for Emax: read-out: LNCaP-AR-wt AG MAX % Stim.
Test [5] deals with T1, F876L mutant Androgen Receptor (AR-F876L). Nature of the test: LNCaP-AR-F876L AG reporter assay (agonist mode). In kind it is cell-based. As to conditions: for EC50: read-out: LNCaP-AR-F876L AG pEC50 (converted); for Emax: read-out: LNCaP-AR-F876L AG MAX % Stim.
Where [6] appears, read: maximum % inhibition of R1881 control response over the tested concentration range.
Setting [7] is: agonist mode, pEC50 = −Log10(EC50 in Molar).
Setting [8] is: maximum % stimulation (agonist response) over the tested concentration range.
[9] abbreviates: antagonist mode, maximum % inhibition of R1881 control response over tested concentration range.
Setting [10] is: agonist mode, maximum % stimulation over tested concentration range.

The structures appear in SMILES notation.

Take `COC(=O)CN1CCC(Oc2ccc(N3C(=S)N(c4cnc(C#N)c(C(F)(F)F)c4)C(=O)C34CCC4)cc2)CC1` [Cpd 33, methyl 2-[4-[4-[6-[6-cyano-5-(trifluoromethyl)-3-pyridyl]-5-oxo-7-thioxo-6,8-diazaspiro[3.4]octan-8-yl]phenoxy]-1-piperidyl]acetate]: in test [1], the “rGABA-gated Cl− channel % inh @10 μM” value was determined as 99.2%. The results for the IC50 in test [2] (antagonist mode) and in test [3] (antagonist mode) were 0.389 µM and 0.708 µM, respectively. For the same compound, the Emax was 98.2% in test [2] (setting [6]), 98.9% in test [3] (setting [6]), 0.2% in test [4] (setting [8]) and 2.8% in test [5] (setting [8]). Also, the EC50 in test [4] (setting [7]) and in test [5] (setting [7]) was above 15.1 µM each time.
Take `CNC1CCC(Oc2ccc(N3C(=S)N(c4cnc(C#N)c(C(F)(F)F)c4)C(=O)C34CCC4)cc2)CC1` (stereo not drawn) [Cpd 80, 5-[8-[4-[4-(methylamino)cyclohexoxy]phenyl]-5-oxo-7-thioxo-6,8-diazaspiro[3.4]octan-6-yl]-3-(trifluoromethyl)pyridine-2-carbonitrile]: the “rGABA-gated Cl− channel % inh @10 μM” value in test [1] turned out to be 33.7%. Besides, the IC50 in test [2] (antagonist mode) was 0.0112 µM; in test [3] (antagonist mode), 0.0251 µM. In addition, the Emax turned out to be 100% in test [2] (setting [6]), 102% in test [3] (setting [6]), 0.6% in test [4] (setting [8]) and 0.1% in test [5] (setting [8]). The EC50 in test [4] (setting [7]) and in test [5] (setting [7]) was above 15.1 µM in each case.
Regarding `N#Cc1ncc(N2C(=O)C3(CCC3)N(c3ccc(OC4CCNCC4)cc3)C2=S)cc1Cl` [Cpd 44, 3-chloro-5-[5-oxo-8-[4-(4-piperidyloxy)phenyl]-7-thioxo-6,8-diazaspiro[3.4]octan-6-yl]pyridine-2-carbonitrile], the “rGABA-gated Cl− channel % inh @10 μM” value in test [1] is −0.5%. Also, the “LNCaP-AR-F876L ANT pIC50” value in test [2] (antagonist mode) is recorded as 7.43. In addition, the Emax was 101% in test [2] (setting [6]), 98.8% in test [3] (setting [6]), 0.7% in test [4] (setting [8]) and 0.1% in test [5] (setting [8]). Also, the “LNCaP-AR-wt ANT pIC50” value in test [3] (antagonist mode) stood at 7.12. Also, the EC50 in test [4] (setting [7]) and in test [5] (setting [7]) was above 15.1 µM in each case.
For the compound `COc1cc(N2C(=O)C3(CCC3)N(c3ccc(OC4CCN(C)CC4)cc3)C2=S)cnc1C#N` [Cpd 23, 3-methoxy-5-[8-[4-[(1-methyl-4-piperidyl)oxy]phenyl]-5-oxo-7-thioxo-6,8-diazaspiro[3.4]octan-6-yl]pyridine-2-carbonitrile], the “rGABA-gated Cl− channel % inh @10 μM” value in test [1] turned out to be 4.8%. Also, the “LNCaP-AR-F876L ANT pIC50” value in test [2] (antagonist mode) is recorded as 6.67. Also, the Emax in test [2] (setting [6]) worked out at 101%; in test [3] (setting [6]) it was 102%; in test [4] (setting [8]), 0.4%; in test [5] (setting [8]), 0.4%. The “LNCaP-AR-wt ANT pIC50” value in test [3] (antagonist mode) was 6.52. In addition, the EC50 in test [4] (setting [7]) and in test [5] (setting [7]) was above 15.1 µM throughout.
Regarding `CC(=O)N1CC(F)(F)CC1COc1ccc(N2C(=S)N(c3cnc(C#N)c(C(F)(F)F)c3)C(=O)C23CCC3)cc1` (stereo not drawn) [Cpd 71, 5-[8-[4-[(1-acetyl-4,4-difluoro-pyrrolidin-2-yl)methoxy]phenyl]-5-oxo-7-thioxo-6,8-diazaspiro[3.4]octan-6-yl]-3-(trifluoromethyl)pyridine-2-carbonitrile], the “rGABA-gated Cl− channel % inh @10 μM” value in test [1] came out at 82.1%. Besides, the results for the IC50 in test [2] (antagonist mode) and in test [3] (antagonist mode) were 0.178 µM and 0.102 µM, respectively. For the same compound, the Emax in test [2] (setting [6]) was 98.3%; in test [3] (setting [6]) it was 101%; in test [4] (setting [8]), 0.2%; in test [5] (setting [8]), 0.5%. Moreover, the EC50 in test [4] (setting [7]) and in test [5] (setting [7]) was above 15.1 µM in each case.
For `COCCN1CCC(Oc2ccc(N3C(=S)N(c4cnc(C#N)c(C)c4)C(=O)C34CCC4)cn2)CC1` [Cpd 98, 5-[8-[6-[[1-(2-methoxyethyl)-4-piperidyl]oxy]-3-pyridyl]-5-oxo-7-thioxo-6,8-diazaspiro[3.4]octan-6-yl]-3-methyl-pyridine-2-carbonitrile], in test [1], the “rGABA-gated Cl− channel % inh @10 μM” value is −7.6%. The figures for the IC50 in test [2] (antagonist mode) and in test [3] (antagonist mode) were 0.0209 µM and 0.0468 µM, respectively. In addition, the Emax came to 100% in test [2] (setting [6]), 101% in test [3] (setting [6]), 0.3% in test [4] (setting [8]) and 0.1% in test [5] (setting [8]). The EC50 in test [4] (setting [7]) and in test [5] (setting [7]) was above 15.1 µM each time.
As to `CC(C)(C)CCN1CCC(Oc2ccc(N3C(=S)N(c4cnc(C#N)c(C(F)(F)F)c4)C(=O)C34CCC4)cc2)CC1` [Cpd 34, 5-(5-(4-((1-(3,3-dimethylbutyl)piperidin-4-yl)oxy)phenyl)-8-oxo-6-thioxo-5,7-diazaspiro[3.4]octan-7-yl)-3-(trifluoromethyl)picolinonitrile], the “rGABA-gated Cl− channel % inh @10 μM” value in test [1] is recorded as 91.2%. Moreover, the IC50 in test [2] (antagonist mode) is 1.26 µM; in test [3] (antagonist mode), 3.31 µM. Also, the Emax is 89.7% in test [2] (setting [6]), 82.7% in test [3] (setting [6]), -0.4% in test [4] (setting [8]) and 0.2% in test [5] (setting [8]). Moreover, the EC50 in test [4] (setting [7]) and in test [5] (setting [7]) was above 15.1 µM throughout.
As to `N#Cc1ncc(N2C(=O)C3(CCC3)N(c3ccc(OC4CCNC(=O)C4)cc3)C2=S)cc1C(F)(F)F` (racemic) [Cpd 195, (R,S)-5-[5-oxo-8-[4-[(2-oxo-4-piperidyl)oxy]phenyl]-7-thioxo-6,8-diazaspiro[3.4]octan-6-yl]-3-(trifluoromethyl)pyridine-2-carbonitrile], in test [1], the “rGABA-gated Cl− channel % inh @10 μM” value is 94.2%. Moreover, the Emax in test [2] (setting [9]) worked out at 100%; in test [3] (setting [9]), 102%; in test [4] (setting [10]) it was 0%; in test [5] (setting [10]), 0.6%. Moreover, the IC50 in test [2] (antagonist mode) is 0.174 µM; in test [3] (antagonist mode), 0.186 µM. Also, the EC50 in test [4] (setting [7]) and in test [5] (setting [7]) was above 15.1 µM throughout.
Regarding `N#Cc1ncc(N2C(=O)C3(CCC3)N(c3ccc(O[C@H]4C[C@H]5CC[C@@H](C4)N5)cc3)C2=S)cc1C(F)(F)F` [Cpd 29, 5-[8-[4-[[(1R,3r, 5S)-8-azabicyclo[3.2.1]octan-3-yl]oxy]phenyl]-5-oxo-7-thioxo-6,8-diazaspiro[3.4]octan-6-yl]-3-(trifluoromethyl)pyridine-2-carbonitrile], the “rGABA-gated Cl− channel % inh @10 μM” value in test [1] worked out at 39.9%. Also, in test [2] (antagonist mode), the “LNCaP-AR-F876L ANT pIC50” value was determined as 6.40. Also, the Emax in test [2] (setting [6]) was found to be 101%; in test [3] (setting [6]) it was 91.5%; in test [4] (setting [8]), 1.5%; in test [5] (setting [8]) it was 3.4%. For the same compound, the “LNCaP-AR-wt ANT pIC50” value in test [3] (antagonist mode) was found to be 6.05. Moreover, the “LNCaP-AR-wt AG pEC50” value in test [4] (setting [7]) is below 4.82. For the same compound, in test [5] (setting [7]), the “LNCaP-AR-F876L AG pEC50” value is given as below 4.82.
Turning to `CN1CC[C@H](Oc2ccc(N3C(=S)N(c4cnc(C#N)c(C(F)(F)F)c4)C(=O)C34CCC4)cc2)[C@@H](F)C1` (racemic) [Cpd 92, 5-[8-[(3SR, 4SR)-4-[(3-fluoro-1-methyl-4-piperidyl)oxy]phenyl]-5-oxo-7-thioxo-6,8-diazaspiro[3.4]octan-6-yl]-3-(trifluoromethyl)pyridine-2-carbonitrile], the “rGABA-gated Cl− channel % inh @10 μM” value in test [1] is recorded as 73.4%. Further, the IC50 in test [2] (antagonist mode) was 0.0603 µM; in test [3] (antagonist mode), 0.0776 µM. For the same compound, the Emax in test [2] (setting [6]) was 98.2%; in test [3] (setting [6]) it was 101%; in test [4] (setting [8]), 0.3%; in test [5] (setting [8]) it was 0.5%. Besides, the EC50 in test [4] (setting [7]) and in test [5] (setting [7]) was above 15.1 µM in each case.
